The assay addresses human TLR7 (Homo sapiens (Human), UniProt Q9NYK1). The experiment in a line: Test for evaluating the inhibition of the activation of human TLR7 (SEAP reporter, TLR7/NF-κB/SEAPorter HEK293 cell). The class given is cell-based. The settings on record: R-848 200 nmol/L; for IC50: SEAP reporter; for inhibitory effect against TLR7 in the test for evaluating inhibition of the activation of TLR7: SEAP activity, result in words. In short, it runs like this:
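The readout is secreted alkaline phosphatase under NF-κB response-element control in TLR7/NF-κB/SEAPorter HEK293 cells, which stably express full-length human TLR7. Cells were plated at 5×10^4 per well and grown overnight at 37° C, 5% CO2, in DMEM/10% FBS/blasticidin.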

In general, IC50 refers to the midpoint of a concentration-inhibition curve. High values mean weaker potency in that assay, low ones greater potency in that assay.

Chain of human TLR7 (Q9NYK1 27-1049): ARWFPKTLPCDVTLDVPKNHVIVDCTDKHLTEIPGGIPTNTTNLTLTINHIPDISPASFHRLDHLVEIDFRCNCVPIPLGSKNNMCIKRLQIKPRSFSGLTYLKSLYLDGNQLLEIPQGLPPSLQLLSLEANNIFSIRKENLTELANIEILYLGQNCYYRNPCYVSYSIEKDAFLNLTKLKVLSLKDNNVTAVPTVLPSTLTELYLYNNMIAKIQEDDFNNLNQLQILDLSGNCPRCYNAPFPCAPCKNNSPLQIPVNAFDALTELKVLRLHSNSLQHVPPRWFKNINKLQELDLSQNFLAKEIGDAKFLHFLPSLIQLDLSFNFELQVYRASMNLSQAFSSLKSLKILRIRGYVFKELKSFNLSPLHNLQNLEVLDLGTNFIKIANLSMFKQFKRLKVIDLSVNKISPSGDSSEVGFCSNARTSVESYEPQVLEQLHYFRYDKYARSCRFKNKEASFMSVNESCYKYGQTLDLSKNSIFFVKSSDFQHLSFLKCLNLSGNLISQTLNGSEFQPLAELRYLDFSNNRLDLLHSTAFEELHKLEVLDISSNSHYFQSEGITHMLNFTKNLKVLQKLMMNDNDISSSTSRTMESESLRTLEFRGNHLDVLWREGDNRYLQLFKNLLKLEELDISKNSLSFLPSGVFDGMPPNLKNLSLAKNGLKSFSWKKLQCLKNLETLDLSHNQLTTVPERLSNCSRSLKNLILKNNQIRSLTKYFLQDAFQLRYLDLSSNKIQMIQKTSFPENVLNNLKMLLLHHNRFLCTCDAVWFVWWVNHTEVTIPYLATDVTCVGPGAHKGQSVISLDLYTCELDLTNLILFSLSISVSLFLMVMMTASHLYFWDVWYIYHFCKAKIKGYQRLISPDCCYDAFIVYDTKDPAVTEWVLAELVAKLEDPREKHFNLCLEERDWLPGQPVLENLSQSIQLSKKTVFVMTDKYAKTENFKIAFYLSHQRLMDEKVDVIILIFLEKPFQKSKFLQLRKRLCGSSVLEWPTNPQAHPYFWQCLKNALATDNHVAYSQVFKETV

For the compound `CCCCN(C)c1nc(N)c2nc(-c3cncc(F)c3)n(Cc3ccc(CN(C)C)cc3)c2n1` [Example 155], the IC50 is 8100 nM.

In turn, `Cc1nc(N)c2nc(-c3cncc(F)c3)n(Cc3ccc(CN(C)C)cc3)c2n1` [Example 156, 9-{4-[(Dimethylamino)methyl]benzyl}-8-(5-fluoropyridin-3-yl)-2-methyl-9H-purine-6-amine] returned an IC50 of 5000 nM.

Turning to `CCc1nc(N)c2nc(-c3cncc(F)c3)n(Cc3ccc(CN(C)C)cc3)c2n1` [Example 157], the IC50 worked out at 8900 nM.

As to `COCC(C)Oc1nc(N)c2nc(-c3cncc(F)c3)n(Cc3ccc(CN(C)C)cc3)c2n1` (stereo not shown) [Example 158, 9-{4-[(Dimethylamino)methyl]benzyl}-8-(5-fluoropyridin-3-yl)-2-[(1-methoxypropan-2-yl)oxy]-9H-purine-6-amine], the IC50 was found to be 13700 nM.

On to `CN(C)Cc1ccc(Cn2c(-c3cncc(F)c3)nc3c(N)nc(OCC(F)F)nc32)cc1` [Example 159], for which the IC50 was 930 nM.

`CN(C)Cc1ccc(Cn2c(-c3cncc(F)c3)nc3c(N)nc(OCC4CC4)nc32)cc1` [Example 160]: the midpoint of inhibition, the IC50, lay at 1300 nM.

For `COc1nc(N)c2nc(-c3cncc(F)c3)n(Cc3ccc(CN4C[C@@H]5C[C@H]4CN5C)cc3)c2n1` [Example 161], the “inhibitory effect against TLR7 in the test for evaluating inhibition of the activation of TLR7” value (shortened to “inhibitory effect against TLR7”) is listed as “potent inhibitory effect against TLR7” and the IC50 amounted to 28 nM.

`CCCOc1nc(N)c2nc(-c3cncc(F)c3)n(Cc3ccc(CN(C)C)cc3)c2n1` [Example 162] had an IC50 of 210 nM.

For the compound `CCOc1nc(C)c2nc(-c3cncc(F)c3)n(Cc3cnn(C4CCN(C)C4)c3)c2n1` (stereo not shown) [Example 164], the IC50 was 170 nM.

Take `COc1nc(C)c2nc(-c3cncc(F)c3)n(Cc3ccc(C4CN5CCC4CC5)cc3)c2n1` (stereo not shown) [Example 165, 9-[4-(1-Azabicyclo[2.2.2]oct-3-yl)benzyl]-8-(5-fluoropyridin-3-yl)-2-methoxy-6-methyl-9H-purine]: the “inhibitory effect against TLR7” value is listed as “potent inhibitory effect against TLR7” and the IC50 came out at 16 nM.

For the compound `CCOc1nc(C)c2nc(-c3cncc(F)c3)n(Cc3cnn(C4CCN(C)CC4)c3)c2n1` [Example 166], the “inhibitory effect against TLR7” value was “potent inhibitory effect against TLR7” and the IC50 stood at 50 nM.

`CCOc1nc(C)c2nc(-c3cncc(F)c3)n(Cc3cnn(C4CN5CCC4CC5)c3)c2n1` (stereo not shown) [Example 167] returned an IC50 of 110 nM.

Take `CCOc1nc(C)c2nc(-c3cncc(F)c3)n(Cc3cccnc3)c2n1` [Example 168]: the IC50 is 1400 nM.

`CCOc1nc(C)c2nc(-c3cncc(F)c3)n(Cc3ccc(C4CCCN4C)cc3)c2n1` (stereo not shown) [Example 170]: inhibition was half-maximal at 82 nM (IC50).

Regarding `CCOc1nc(C)c2nc(-c3cncc(F)c3)n(Cc3ccc(C4CN5CCC4CC5)cc3F)c2n1` (stereo not shown) [Example 172], the “inhibitory effect against TLR7” value was “potent inhibitory effect against TLR7” and the IC50 amounted to 3 nM.

`CCOc1nc(C)c2nc(-c3cncc(F)c3)n(Cc3ccc(CN4CCN5CC[C@@H]4C5)cc3)c2n1` [Example 174, 9-{4-[(5R)-1,4-diazabicyclo[3.2.1]oct-4-ylmethyl]benzyl}-2-ethoxy-8-(5-fluoropyridin-3-yl)-6-methyl-9H-purine]: the “inhibitory effect against TLR7” value was “potent inhibitory effect against TLR7” and the IC50 was determined as 26 nM.

Regarding `CCOc1nc(N)c2nc(-c3cncc(F)c3)n(Cc3ccc([C@@H]4CN5CCC4CC5)cc3)c2n1` [Example 175, 9-{4-[(3R)-1-Azabicyclo[2.2.2]oct-3-yl]benzyl}-2-ethoxy-8-(5-fluoropyridin-3-yl)-9H-purine-6-amine], the IC50 was found to be 94 nM.

For the compound `CCOc1nc(N)c2nc(-c3cncc(F)c3)n(Cc3ccc([C@H]4CN5CCC4CC5)cc3)c2n1` [Example 176, 9-{4-[(3S)-1-azabicyclo[2.2.2]oct-3-yl]benzyl}-2-ethoxy-8-(5-fluoropyridin-3-yl)-9H-purine-6-amine], the “inhibitory effect against TLR7” value is “potent inhibitory effect against TLR7” and the midpoint of inhibition, the IC50, lay at 11 nM.

The compound `COc1nc(C)c2nc(-c3cncc(F)c3)n(Cc3ccc([C@@H]4CN5CCC4CC5)cc3)c2n1` [Example 177, 9-{4-[(3R)-1-Azabicyclo[2.2.2]oct-3-yl]benzyl}-8-(5-fluoropyridin-3-yl)-2-methoxy-6-methyl-9H-purine] gave an IC50 of 10 nM.

Turning to `CCCCOc1nc(N)c2nc(-c3ccc(N(C)C)cc3)n(Cc3ccccc3)c2n1` [Example 179], the concentration for half-maximal inhibition (IC50) amounted to 16200 nM.

Take `COCCOc1nc(N)c2nc(-c3cncc(S(C)(=O)=O)c3)n(Cc3ccc(CN(C)C)cc3)c2n1` [Example 181]: the IC50 was determined as 19700 nM.

For the compound `CCOc1nc(N)c2nc(-c3cncc(F)c3)n(Cc3cccc(C#N)c3)c2n1` [Example 237], the IC50 is 2020 nM.

The compound `CCOc1nc(N)c2nc(-c3cncc(F)c3)n(Cc3cc(F)ccc3F)c2n1` [Example 240] displayed an IC50 of 357 nM.

Consider `COc1nc(C)c2nc(-c3cncc(F)c3)n(Cc3cnn(C)c3)c2n1` [Example 243], for which inhibition was half-maximal at 2660 nM (IC50).

`CCOc1nc(C)c2nc(-c3cncc(F)c3)n(Cc3cnn(CCN(C)C)c3)c2n1` [Example 244] gave an IC50 of 445 nM.

As for `CCOc1nc(C)c2nc(-c3cncc(F)c3)n(Cc3cnn(CCCN(C)C)c3)c2n1` [Example 245], the IC50 was 198 nM.

Consider `CCOc1nc(C)c2nc(-c3cncc(F)c3)n(Cc3cnn(CCN4CCCC4)c3)c2n1` [Example 246], for which half-maximal inhibition (IC50) was put at 300 nM.

In the case of `CCOc1nc(C)c2nc(-c3cncc(F)c3)n(Cc3cnn(CCCN4CCCC4)c3)c2n1` [Example 247], the IC50 was determined as 85 nM.

`CCOc1nc(C)c2nc(-c3cncc(F)c3)n(Cc3cnn(CCN4CCOCC4)c3)c2n1` [Example 248] displayed an IC50 of 248 nM.

In turn, `CCOc1nc(C)c2nc(-c3cncc(F)c3)n(Cc3cnn(CCCN4CCOCC4)c3)c2n1` [Example 249] had an IC50 of 100 nM.

For `COc1nc(C)c2nc(-c3cncc(F)c3)n(Cc3cnn(CCN(C)C)c3)c2n1` [Example 250], the IC50 stood at 200 nM.

The compound `COc1nc(C)c2nc(-c3cncc(F)c3)n(Cc3cnn(CCCN(C)C)c3)c2n1` [Example 251] registered an IC50 of 180 nM.

The compound `COc1nc(C)c2nc(-c3cncc(F)c3)n(Cc3ccc(CO)cc3F)c2n1` [Example 258] gave an IC50 of 169 nM.

On to `COc1nc(C)c2nc(-c3cncc(F)c3)n(Cc3ccc(CN(C)C)cc3F)c2n1` [Example 259, 1-(3-fluoro-4-{[8-(5-fluoropyridin-3-yl)-2-methoxy-6-methyl-9H-purin-9-yl]methyl}phenyl)-N,N-dimethylmethanamine], for which the “inhibitory effect against TLR7” value was “potent inhibitory effect against TLR7” and inhibition was half-maximal at 28 nM (IC50).

With `COc1nc(C)c2nc(-c3cncc(F)c3)n(Cc3ccc(CN4CCC4)cc3F)c2n1` [Example 260, 9-[4-(azetidin-1-ylmethyl)-2-fluorobenzyl]-8-(5-fluoropyridin-3-yl)-2-methoxy-6-methyl-9H-purine], the “inhibitory effect against TLR7” value is reported as “potent inhibitory effect against TLR7” and the IC50 is 18 nM.

The compound `CCOC1CN(Cc2ccc(Cn3c(-c4cncc(F)c4)nc4c(C)nc(OC)nc43)c(F)c2)C1` [Example 261] came in with an IC50 of 1160 nM.

Take `CCOc1nc(C)c2nc(-c3cncc(F)c3)n(Cc3ccc(CN4CCN(C)CC4)cc3)c2n1` [Example 262]: the “inhibitory effect against TLR7” value was “potent inhibitory effect against TLR7” and the IC50 amounted to 27 nM.

`CCOc1nc(C)c2nc(-c3cncc(F)c3)n(Cc3ccc(CN4CCCC4)cc3)c2n1` [Example 263]: it took 102 nM to reach half-maximal inhibition (IC50).

Regarding `CCOc1nc(C)c2nc(-c3cncc(F)c3)n(Cc3ccc(CN4CCCCC4)cc3)c2n1` [Example 264], the “inhibitory effect against TLR7” value is on record as “potent inhibitory effect against TLR7” and 63 nM corresponded to half-maximal inhibition (IC50).

For `CCOc1nc(C)c2nc(-c3cncc(F)c3)n(Cc3ccc(CN4[C@@H]5CC[C@H]4CN(C)C5)cc3)c2n1` [Example 265], the “inhibitory effect against TLR7” value is recorded as “potent inhibitory effect against TLR7” and it took 57 nM to reach half-maximal inhibition (IC50).

As for `CCOc1nc(C)c2nc(-c3cncc(F)c3)n(Cc3ccc(CN(CC)CC)cc3)c2n1` [Example 266], the “inhibitory effect against TLR7” value is reported as “potent inhibitory effect against TLR7” and the IC50 stood at 29 nM.

`CCOc1nc(C)c2nc(-c3cncc(F)c3)n(Cc3cnn(CC4CCCNC4)c3)c2n1` (stereo not shown) [Example 268] registered an IC50 of 27 nM.

`CCOc1nc(C)c2nc(-c3cncc(F)c3)n(Cc3cnn(CC4CCCNC4)c3)c2n1` (stereo not shown) [Example 269] yielded an IC50 of 19 nM.

In the case of `CCOc1nc(C)c2nc(-c3cncc(F)c3)n(Cc3cnn(CC4CCNC4)c3)c2n1` (stereo not shown) [Example 270], the IC50 is 272 nM.

With `CCOc1nc(C)c2nc(-c3cncc(F)c3)n(Cc3cnn(CC4CCNC4)c3)c2n1` (stereo not shown) [Example 271], the IC50 is 99 nM.

`CCOc1nc(C)c2nc(-c3cncc(F)c3)n(Cc3cnn(CC4CN(C)CCO4)c3)c2n1` (stereo not shown) [Example 272] displayed an IC50 of 261 nM.

For `CCOc1nc(C)c2nc(-c3cncc(F)c3)n(Cc3cnn(CC4CN(C)CCO4)c3)c2n1` (stereo not shown) [Example 273], the IC50 turned out to be 200 nM.

Compound `CCOc1nc(C)c2nc(-c3cncc(F)c3)n(Cc3cnn(CC4COCCN4C)c3)c2n1` (stereo not shown) [Example 274] registered an IC50 of 100 nM.

In the case of `CCOc1nc(C)c2nc(-c3cncc(F)c3)n(Cc3cnn(CC4CCCN(C)C4)c3)c2n1` (stereo not shown) [Example 276], the “inhibitory effect against TLR7” value is on record as “potent inhibitory effect against TLR7” and 24 nM corresponded to half-maximal inhibition (IC50).

Consider `CCOc1nc(C)c2nc(-c3cncc(F)c3)n(Cc3cnn(CC4CCCN(C)C4)c3)c2n1` (stereo not shown) [Example 277], for which the “inhibitory effect against TLR7” value is on record as “potent inhibitory effect against TLR7” and the IC50 was found to be 23 nM.

The values are drawn from patent publication US10703755B2, “Substituted purine derivative” (SUMITOMO DAINIPPON PHARMA CO., LTD., priority 2016, dated 2020).
